From patent US9079876B2, “Imidazole derivatives and preparation method and use thereof” (Beijing Orbiepharm Co., Ltd., priority 2010, dated 2015) come the findings set out here.

The target in one series is T1, COX-2 (Canis lupus familiaris, UniProt Q8SPQ9).
T1 construct: in vitro activity study using beagle dog whole blood was conducted; from tissue; host or cells: beagle dog whole blood, stimulated with LPS (by the same method as for human blood)
T1 sequence (Q8SPQ9 18-604): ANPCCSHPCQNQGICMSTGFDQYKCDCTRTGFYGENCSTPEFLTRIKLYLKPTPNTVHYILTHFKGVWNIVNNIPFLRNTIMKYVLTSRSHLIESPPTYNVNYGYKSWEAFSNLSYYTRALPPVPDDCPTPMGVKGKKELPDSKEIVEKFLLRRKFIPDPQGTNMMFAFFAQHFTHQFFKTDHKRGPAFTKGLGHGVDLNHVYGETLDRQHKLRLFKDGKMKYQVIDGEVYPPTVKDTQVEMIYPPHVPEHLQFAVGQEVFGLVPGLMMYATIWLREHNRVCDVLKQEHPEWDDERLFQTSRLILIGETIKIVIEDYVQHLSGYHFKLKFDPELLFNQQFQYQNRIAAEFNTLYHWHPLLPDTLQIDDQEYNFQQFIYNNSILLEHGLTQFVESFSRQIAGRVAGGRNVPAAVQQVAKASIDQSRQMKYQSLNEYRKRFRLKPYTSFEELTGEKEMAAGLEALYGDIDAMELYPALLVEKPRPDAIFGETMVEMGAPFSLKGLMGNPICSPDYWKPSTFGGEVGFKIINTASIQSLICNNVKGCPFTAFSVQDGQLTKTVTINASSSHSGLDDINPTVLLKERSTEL
Description: Dog whole blood in vitro activity assay, COX-2. It is filed as cell-based, beagle dog.

The subject of series [1] is mice tail suspension immobility time. Description: Tail suspension test in mice (anti-depression model). It is filed as in vivo, Male Kunming mice. The protocol: In Vivo Test: Tail Suspension Test in Mice (Evaluation on an Anti-Depression Model)
Male Kunming mice, approximately 20 g, were randomized into six groups, i.e. normal group, positive drug group (fluoxetine 20 mg/kg), compound 1: group A 5 mg/kg, group B 10 mg/kg, group C 20 mg/kg, and group D 40 mg/kg.
Single Dose Test: Mice were normally fed for 1 day and allowed to adapt to the environment. Then the mice were fasted (except water) for 16 hours, and were intragastrically administrated with a single dose of the compound. The normal group was intragastrically administrated with an equivalent amount of distilled water. 40 min after the administration, the mice were inverted and fixed to a tail suspension device, and the distance between the head and the desktop was about 30 cm. Immobility time was recorded with an analysis record system, for the latter 4 min within the 6 min recording period, and was used for statistical analysis.
(§1) Study with Three-Day Consecutive Dosing: Mice were normally fed for 1 day and allowed to adapt to the environment. Then the mice were intragastrically administrated with the test drug for 3 consecutive days (once per day), and the normal group was intragastrically administrated with an equivalent amount of distilled water. The mice were fasted (except water) for 16 hours before the last dosing. 40 min after the last dosing, the mice were inverted and fixed to the tail suspension device, and the distance between the head and the desktop was about 30 cm. Immobility time was recorded with an analysis record system, for the latter 4 min within the 6 min recording period, and was used for statistical analysis.
as §1, with “with Seven-Day” for “with Three-Day”, “intragastrically dosed” for “intragastrically administrated with the test drug”, “for 7” for “for 3”, “days (once/day),” for “days (once per day),”, “last administration.” for “last dosing.”, “last administration,” for “last dosing,”

A short description of series [2]: Pharmacokinetic study, intravenous, rats. It is filed as in vivo. The note with it: male SD rats, IV 2 mg/kg. Here is the method:
Cimicoxib (cimicoxib) was IV administrated to male SD rats in vivo [2 mg/kg, 2 mg/ml, menstruum: DMSO/PEG 400/30% HP-b-CD ([…])], T1/2 was 3.20 h. The half-life of compound 1 was longer than cimicoxib.

The AUC(0-t) is the area under the concentration-time curve up to a stated or last time point. Read a high AUC(0-t) as more exposure. A word on the clearance: it is the volume of plasma or blood freed of the substance per unit of time. Lower therefore signals a low capacity for elimination. What is called half-life is the time in which the quantity being followed falls by half. A high value points to slow loss.

`CS(=O)(=O)c1ccc(-n2cnc(Cl)c2-c2ccccc2)nc1` [Compound 1, 2-(4-chloro-5-phenyl-1H-imidazol-1-yl)-5-(methylsulfonyl)pyridine]: the IC50COX-1/IC50COX-2 against COX-2 was found to be 83.2. The IC50 on COX-2 (read-out: IC50 (μg/mL) COX-2 (converted)) was 2640 nM. The “tail suspension Immobility time” value in series [1] (3 days consecutive administration, 5 mg/kg intragastric, in s (unit assumed)) is 45.36 ± 12.09; in series [1] (3 days consecutive administration, 10 mg/kg intragastric, in s (unit assumed)) it was 31.94 ± 8.76; in series [1] (3 days consecutive administration, 20 mg/kg intragastric, in s (unit assumed)), 33.64 ± 15.78; in series [1] (3 days consecutive administration, 40 mg/kg intragastric, in s (unit assumed)), 41.36 ± 14.22; in series [1] (7 days consecutive administration, 5 mg/kg intragastric, 5 mg/kg, in s (unit assumed)), 45.11 ± 16.88; in series [1] (7 days consecutive administration, 5 mg/kg intragastric, listed as test drug, 5 mg/kg) it was “tendency of reduction in immobility time”. The “tail suspension Immobility time” value in series [1] (7 days consecutive administration, 10 mg/kg intragastric, in s (unit assumed)) is 36.47 ± 15.13; in series [1] (7 days consecutive administration, 20 mg/kg intragastric, in s (unit assumed)), 29.98 ± 9.87; in series [1] (7 days consecutive administration, 40 mg/kg intragastric, in s (unit assumed)), 29.70 ± 15.02; in series [1] (single dose, 5 mg/kg intragastric, 40 min after administration, in s (unit assumed)) it was 46.57 ± 16.46; in series [1] (single dose, 10 mg/kg intragastric, 40 min after administration, in s (unit assumed)) it was 47.10 ± 17.93; in series [1] (single dose, 20 mg/kg intragastric, 40 min after administration, in s (unit assumed)), 43.25 ± 14.41. For the same molecule, the “tail suspension Immobility time” value in series [1] (single dose, 40 mg/kg intragastric, 40 min after administration, in s (unit assumed)) amounted to 46.58 ± 15.32. The t1/2 in series [2] is 5.37 ± 0.51 h. In series [2] (rat, in vivo), this molecule returned an AUC(0-t) of 11400 ± 949 ng·h/mL. Also, in series [2] (rat, in vivo), the C0 was 1700 ± 259 ng/mL. In series [2] (rat, in vivo), this molecule yielded a clearance of 2.83 ± 0.27 mL/min/kg. In addition, in series [2] (rat, in vivo, 2 mg/ml, DMSO/PEG 400/30% HP-b-CD), the half-life is 5.37 h. The Vd in series [2] (rat, in vivo, read-out: Vss) stood at 1.16 ± 0.02 L/kg.
